These results are taken from patent US6365414B1, “Vitro system for determining formation of Aβ amyloid” (The General Hospital Corporation, priority 1994, dated 2002).

Series [1] deals with T1, Aβ (Homo sapiens, UniProt P05067).
T1 construct: purchased Bachem; Sigma (also synthesized by the W. M. Keck Foundation laboratory, Yale); host or cells: chemical synthesis
In words: G50 gel filtration chromatography of Aβ with metal ions or EDTA. The conditions noted are these: for effect on Aβ recoverable by chromatography (in words) / less total peptide eluted compared with EDTA profile: metal 25 μM. The procedure: Aβ was stored in aliquots of 0.52 mg/ml in water at −20° C., then kept at 4° C. when thawed. Reagents were mixed without vortex mixing. The incubated Aβ was directly applied to a G50 SF (Pharmacia, Uppsala, Sweden) column (Bio-Rad Econo-Column, 30×0.7 cm) pre-equilibrated with metal salt solution or EDTA (50 μM) in TBS at 20° C. and eluted at 8 ml/h (Wiz peristaltic pump, Isco, Lincoln, Nebr.). Absorbance was measured at 254 and 214 nm (Type 6 optical unit, Isco). The amount of Aβ eluting at various peaks was estimated from the area under the curve. […] Because the sample eluted in a volume of approximately 15 ml, the average concentration of the peptide on the column was 0.8 μM.
To study the effects of protein blocking upon adsorption of Aβ to the chromatography column, a Sephadex G50 SF column which had been characterized previously for Aβ behavior was eluted with 3% bovine serum albumin (BSA) in TBS (50 ml) and equilibrated with non-BSA-containing buffer, subsequent to repeating the Aβ experiments.
The elution points of molecular mass standards and relative assignments of Aβ peak elutions are indicated. Mass standards were blue dextran (2×10^6 kDa, V0=void volume), BSA (66 kDa), carbonic anhydrase (29 kDa), cytochrome c (12.4 kDa), and aprotinin (6.5 kDa). The mass of Aβ is 4.3 kDa. […] Data for experiments performed in the presence of copper were taken from 214 nm readings and corrected for comparison.

The nature of series [2]: ^65Zn^2+ dot-blot binding to immobilized Aβ peptides (Scatchard / competition). The conditions noted are these: for zinc binding (in words): dot-blot or blot of tryptic digest, ^65Zn^2+. As for the experimental part: ^65Zn^2+ Binding Studies—Dissolved peptides (1.2 nMol, unless otherwise stated) were dot-blotted onto 0.2-μm polyvinylidene difluoride membrane (Pierce Chemical Co.), washed twice with chelating buffer (200 μl×100 mM NaCl, 20 mM Tris-HCl, 1 mM EDTA, pH 7.4), then five times with blocking buffer (200 μl×100 mM NaCl, 20 mM Tris-HCl, 1 mM MnCl2, pH 7.4), and then incubated (60 min, 20° C.) with ^65Zn (unless otherwise stated 130,000 cpm, […] ^65ZnCl2 in 200 μl of blocking buffer±competing metal ion chloride). The dot-blot was then washed with blocking buffer (5×200 μl), the dot excised, placed in a test tube, and assayed by γ-counting (11% efficiency). The equilibration volume for stoichiometry estimates was regarded as 6×200 μl. The 214 nm UV absorbance of the unbound flow-through was assayed to determine the total amount of peptide remaining bound onto the membrane. […] To alter the pH, the ^65Zn incubation was carried out in the presence of 100 mM buffer: MOPS (pH 6.5-7.0), MES (pH 5.0-6.0), acetate (pH 3.5-4.5). The dot-blot apparatus was washed with detergent and EDTA (50 mM) then rinsed and siliconized between use.
Aliquots of Aβ were incubated (60 min) with ^65Zn^2+ in the presence of varying concentrations of unlabeled Zn^2+ (0.01-50 μM total). Values shown are means±S.D., n≧3. […] (FIG. 1b) depicts specificity of the Zn^2+ binding site for various metals. Aβ was incubated (60 min) with ^65Zn^2+ (157 nM, 138,000 cpm) and competing unlabeled metal ions (50 μM total). […] Percent binding of total counts ^65Zn^2+/min added is corrected for the amounts (in nanomoles) of peptides adhering to the membrane. (FIG. 1d) depicts as for 1a, with Aβ1-28 peptide substituting for Aβ1-40. 157 nM ^65Zn (138,000 cpm) is used in this experiment to probe immobilized peptide (1.6 nmol). (FIG. 1e) depicts pH dependence of […] binding to Aβ1-40.

For series [3] the following is noted: centrifugation studies; cited from earlier work.
Series [4] can be described thus: Size estimation of Aβ aggregates with filters of various pore sizes, ^65Zn tracer, EDTA wash. It is filed as physicochemical. The procedure: FIGS. 7a, 7b, 7c and 7d. Size estimation of zinc-induced Aβ aggregates. […] By determining the amounts of Aβ1-40 and ^65Zn in the filtrate, the quantities retarded by the filters could be determined, and the stoichiometry of the zinc: Aβ assemblies estimated. (7d) Bar graph. […] The amounts of zinc-precipitated Aβ1-40 resolubilized in the filtrate fraction were determined by OD214, and expressed as a percentage of the amount originally retained by the respective filters. ^65Zn released into the filtrate was measured by γ-counting.
By determining the amounts of Aβ1-40 and ^65Zn in the filtrate, the quantities retarded by the filters could be determined, and the stoichiometry of the zinc: Aβ assemblies estimated. […] The amounts of zinc-precipitated Aβ1-40 resolubilized in the filtrate fraction were determined by OD214, and expressed as a percentage of the amount originally retained by the respective filters. ^65Zn released into the filtrate was measured by γ-counting.

Series [5] can be described thus: Tinctorial amyloid formation (Congo Red, polarized light). The series is classed as physicochemical.
Experimental: Zinc-induced tinctorial amyloid formation. […] Unbound dye was removed, the pellet washed with buffer 1 (100 mM NaCl, 20 mM Tris-HCl, pH 7.4) and mounted for microscopy.
Unbound dye was removed, the pellet washed with buffer 1 (100 mM NaCl, 20 mM Tris-HCl, pH 7.4) and mounted for microscopy.
The conditions of series [6]: neutral pH; cited from earlier work.
Series [7] deals with T1, Aβ. In words: SDS Tris/Tricine gel electrophoresis of Aβ incubated with Zn^2+. The conditions noted are these: Zn^2+ 200 μM, 1-24 h, 20° C.
Experimental: To further test whether zinc induces irreversible precipitation of Aβ in the absence of kaolin, Aβ incubated with Zn^2+ (200 μM, 1-24 h, 20° C.) was subjected to SDS Tris/Tricine gel electrophoresis.
The nature of series [8]: Aβ binding to kaolin (aluminum silicate). It is filed as physicochemical. The conditions noted are these: metal 25 μM. As for the experimental part:
Aβ Binding to Kaolin (Aluminum Silicate)—Kaolin suspension was prepared in high performance liquid chromatography water (Fisher), defined, and adjusted to 50% (v/v). Aβ (40 μg) was incubated in siliconized reaction vessels with either kaolin or Sephadex G50 SF (10 μl×50% (v/v)) in Cu^2+, Zn^2+, or EDTA (100 μl in TBS, 5 min, room temperature). The suspension was then pelleted (1500×g, 3 min) and the supernatant removed and diluted 20-fold with water to bring the UV absorbance readings into the linear range. Samples were assayed at 214 nm before and after incubation with kaolin or Sephadex.
(FIG. 3a) depicts concentration (by 214 nm absorbance) of Aβ remaining in supernatant after incubation with 10 mg of G50 Sephadex. (FIG. 3b) depicts concentration (by 214 nm absorbance) of Aβ remaining in supernatant after incubation with 10 mg of kaolin, expressed as percent of the starting absorbance.

Series [9] concerns the target T2, Aβ1-40 (Homo sapiens, UniProt P05067).
T2 construct: Aβ1-40 (13.9 μg) was incubated with; purchased Bachem; Sigma (also synthesized by the W. M. Keck Foundation laboratory, Yale); host or cells: chemical synthesis
In words: Tryptic digestion of Aβ1-40 after incubation with Zn^2+. The series is classed as biochemical.
Experimental: Tryptic Digestion of Aβ-Aβ1-40 (13.9 μg) was incubated with Zn^2+ (12 μl in blocking buffer, 1 h, 37° C.) and then digested with trypsin (12 ng, 3 h, 37° C.). The reaction was stopped by adding SDS sample buffer containing phenylmethylsulfonyl fluoride (1 mM), boiling the samples (5 min), and applying the samples to Tris/Tricine gel electrophoresis and transfer. The blot was washed with EDTA, Coomassie-stained, incubated with ^65Zn^2+, individual bands were excised, assayed for ^65Zn^2+ binding, and N-terminal sequenced to confirm the identity of the digestion products.
The blot in 4a was incubated with ^65Zn^2+, the visible bands excised, and the bound counts for each band determined.

For series [10], the system named is trypsin. The experiment in a line: Trypsin activity, Z-Arg-amido-4-methylcoumarin cleavage. It is filed as biochemical.
For series [11] the following is noted: human, in vivo.

Where two headings read alike, the source gives them in different places. Bounds are passed on as bounds.

T1 sequence (P05067 672-711 limits assumed): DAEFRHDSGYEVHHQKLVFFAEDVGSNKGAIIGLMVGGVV
T2 sequence (P05067 672-711 limits assumed): as above

As to `[Al+3]` [Al^3+], the “effect on Aβ recoverable by chromatography (in words)” value in series [1] is “partial effects on Aβ solubility comparable with 3 μM total Zn^2+”.
Take “6-40: 3.6 kDa tryptic digestion product of Aβ1-40”: in series [2], the “zinc binding (in words)” value was “binds zinc”.
Take “^125I-Aβ1-40: human Aβ1-40 tracer iodinated on the tyrosine residue at position 10”: the “Zn^2+ concentration required to precipitate the peptide” value in series [3] is given as 1 mM.
With “gln11: Aβ1-28 where residue 11 is glutamine (DAEFRHDSGYQVHHQKLVFFAEDVGSNK; Amyloid-beta protein 40; UniProt P05067 672-699, looked up, variant E11Q)”, the “zinc binding (in words)” value in series [2] is recorded as “does not interfere with ^65Zn^2+ binding”.
As to “25-35: Aβ fragment covering a region of the carboxyl terminus, residues 25-35 (GSNKGAIIGLM; Amyloid-beta protein 40; UniProt P05067 696-706, looked up, fragment)”, in series [2], the “zinc binding (in words)” value was “unable to bind zinc”.
Consider `[Mg+2]` [Mg^2+], for which, in [1], the “less total peptide eluted compared with EDTA profile” value is listed as 40%.
With “rat Aβ1-40: rat/mouse species of Aβ1-40; Arg→Gly, Tyr→Phe and His→Arg at positions 5, 10 and 13 (DAEFGHDSGFEVRHQKLVFFAEDVGSNKGAIIGLMVGGVV; Amyloid-beta protein 40; UniProt P08592 672-711, looked up)”, the “increase of >0.1μ particles following incubation with Zn^2+” value in series [4] (Zn^2+ 25 μM versus EDTA) is reported as 20%. For the same compound, the “increase of >0.22μ particles following incubation with Zn^2+” value in [4] (Zn^2+ 25 μM versus EDTA) was 30%. The “proportion as >0.65μ particles” value in series [4] (Zn^2+ 25 μM, peptide […]) was “increased only slightly”. Further, the “Zn^2+ concentration that induces amyloid by tinctorial criteria” value in series [5] is not below 10 µM. Further, the “Congo Red-stained material after incubation with EDTA” value in [5] (EDTA 50 μM instead of Zn^2+) is given as “In neither case was Congo Red-stained material detected”. In [5] (Zn^2+ 25 μM, 30 min, 37° C.), the “tinctorial amyloid formation (in words)” value was “significantly fewer and smaller particles, with minimal birefringence”. For the same compound, the “peptide aggregated into >0.2μ particles” value runs as follows: (EDTA, higher peptide concentrations) “≈ 15%”; (EDTA, peptide 0.8 μM) “no detectable aggregation”; (Zn^2+ 25 μM, peptide 0.8 μM) “no aggregation”; (Zn^2+ 25 μM, peptide 4 μM) 25%.
For the compound `[Ba+2]` [Ba^2+], the “less total peptide eluted compared with EDTA profile” value in series [1] worked out at 40%.
Same read-out and setting: for `[Ca+2]` [Ca^2+] the value was 40%.
With “insulin: peptide whose zinc binding properties are well characterized”, the “stoichiometric ratio Zn^2+:insulin at which the peptide precipitates” value in series [6] was more than 0.33.
In the case of `[Cu+2]` [Cu^2+], in series [1] (25 μM total), the Aβ dimerization result is reported as “dramatic increase in Aβ dimerization”.
Turning to `[Zn+2]` [Zn^2+], in series [7], the “covalent or SDS-resistant polymerization of Aβ” value was “does not induce covalent or SDS-resistant polymerization of Aβ”. The “effect on kaolin-induced Aβ precipitation relative to EDTA” value in [8] is “nearly half of the amount recovered from the EDTA incubation supernatant”. The “Aβ eluting from the column” value in series [1] (25 μM total Zn^2+) was less than 20%. The “lowest total concentration that decreases recoverable Aβ” value in series [1] (compared with EDTA profile) was 0.4 µM. For the same compound, in series [9] (200 μM Zn^2+), the “inhibition of tryptic Aβ hydrolysis” value is recorded as “complete inhibition of Aβ hydrolysis”. Besides, the “competition of unlabeled metal ions for ^65Zn^2+ label on Aβ” value in series [2] (competing metal 50 μM total, ^65Zn^2+ 157 nM) is listed as “the only unlabeled metal ion tested that is capable of competing off the label”. The “inhibition of tryptic activity” value in series [10] (200 μM) was 12%. Moreover, in series [10] (up to 100 μM in TBS), the “effect on the activity of trypsin” value is listed as “negligible”. For the same compound, the “induction of aggregation of human Aβ1-40 by metal ions” value (metal ions 3 μM, Aβ1-40 […]) is “the only one of several metal ions tested on an equimolar basis, including Al^3+, to induce significant aggregation of human Aβ1-40”. Besides, in series [11], the “effect on cognition of age-matched control subjects” value is reported as “remained unaffected by the dose”, the reversibility of changes entry was “rapidly reversible following cessation of the four day supplementation” and the “time to acute decline in cognition” value is “forty-eight”. In series [11] (po), the “drop in Mini-Mental State Examination scores” value is reported as 31%.
For the compound `[Ag+2]` [Ag^2+], the “less total peptide eluted compared with EDTA profile” value in series [1] stood at 40%.
For the compound Aβ1-28: Aβ fragment, residues 1-28, the “^65Zn^2+ binding compared with Aβ1-40” value in series [2] (^65Zn^2+ 74 nM, FIG. 1c) is on record as 30 % of Bmax.
With `[Pb+2]` [Pb^2+], the “effect on Aβ recoverable by chromatography (in words)” value in series [1] is “most strongly promotes the elution of the monomeric peptide, abolishing high order polymers”.
“17-40: 2.1 kDa tryptic digestion product of Aβ1-40, post-secretase carboxyl-terminal product (LVFFAEDVGSNKGAIIGLMVGGVV; Amyloid-beta protein 40; UniProt P05067 688-711, looked up, fragment) [reference compound]”: the “effect of zinc on the rate of tryptic digestion of the peptide” value in series [9] (increasing zinc concentrations) is recorded as “not inhibited by increasing zinc concentrations”. Also, in [2], the “zinc binding (in words)” value is “does not bind zinc”.
On to `NC(CO)(CO)CO` [Tris], for which the “abolition of ^65Zn^2+ binding to Aβ” value is reported as “≈ 50%” in [2] (150 mM Tris) and “≈ 95%” in [2] (500 mM Tris).
